Data on four molecules can be found in patent US11547696B2, “Methods and compositions for treatment of myelodysplastic syndromes and/or acute myeloid leukemias” (Children's Hospital Medical Center, priority 2016, dated 2023).

“Also recorded” adds a separate entry of the source. Where two headings read alike, the source gives them in different places.

Series [1] concerns AML/MDS cells. Put plainly: Cell cycle of AML/MDS cells. Format: cell-based.
In series [2] the test system is AML/MDS cells. The series is described as follows: DNA damage in AML/MDS cells. It is filed as cell-based.
Series [3] concerns MDSL cells. The series is described as follows: Global ubiquitin screen in MDSL cells. It is filed as cell-based. The source says: (§1) To identify the molecular basis of UBE2N inhibition, Applicant performed a global ubiquitin screen for changes in ubiquitinated substrates and gene expression profiling by RNA sequencing. For the ubiquitin screen, K63 ubiquinated proteins were immunopreciptated from MDSL cells upon pharmacologic inhibition of UBE2N, followed by mass spectrometry analysis.

The subject of series [4] is AML/MDS cells. Put plainly: Proliferation of AML/MDS cells. Format: cell-based.
The subject of series [5] is NFkB and interferon signaling in AML/MDS cells. The series is described as follows: NFkB and interferon signaling in AML/MDS cells. To be noted: for NFkB signaling: AML cells. It is filed as cell-based.
In series [6] the test system is AML/MDS cells. The series is described as follows: Cell death of AML/MDS cells. Format: cell-based.
The subject of series [7] is TRAF6. Put plainly: TRAF6 protein expression. It is filed as cell-based. Particulars: rescued by inhibition of the proteasome.
For series [8], the system named is normal HSPC. The series is described as follows: Clonogenic capacity of normal HSPC. It is filed as cell-based.
The test system of series [9] is MDS/AML cells. Put plainly: Cellular metabolic activity of MDS/AML cells. Format: cell-based.
Series [10] concerns MDSL cells. Put plainly: RNA sequencing / expression in MDSL cells. It is filed as cell-based.
Source text: as §1

The test system of series [11] is AML/MDS cells. The series is described as follows: Clonogenic potential of AML/MDS cells. It is filed as cell-based.
The test system of series [12] is TLR mediated NFkB activity. Put plainly: TLR mediated NFkB activity. It is filed as cell-based. Particulars: for TLR mediated NFkB signaling: AML cells.
Series [13] concerns the target T1, UBE2N (Homo sapiens, UniProt P61088).
T1 construct: endogenous in cells
T1 sequence (P61088 1-152): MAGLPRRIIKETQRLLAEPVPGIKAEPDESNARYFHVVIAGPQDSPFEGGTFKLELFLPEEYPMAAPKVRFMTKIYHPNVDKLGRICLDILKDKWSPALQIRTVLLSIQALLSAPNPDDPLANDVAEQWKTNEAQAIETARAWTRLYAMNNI
The series is described as follows: Direct binding to UBE2N (Michael-Addition reaction). To be noted: through a Michael-Addition reaction.

Series [14] relates to MOLM-13 and THP-1 cells. The series is described as follows: DNA damage in MOLM-13 and THP-1 cells. It is filed as cell-based.
In series [15] the test system is AML cells. The series is described as follows: Viability of AML cells. It is filed as cell-based.
In series [16] the test system is DDB1. The series is described as follows: DDB1 ubiquitination following UBE2N inhibition. Format: cell-based. To be noted: following inhibition of UBE2N.
Source text: as §1
(§2) One substrate identified in NSC697923-treated MDSL cells by the ubiquitin screen is DDB1, a component of the CUL4-CRBN E3 ligase complex targeted by Lenalidomide (LEN). […] LEN has shown encouraging results in del(5q) MDS patients (“deletion 5q (del 5q) MDS” in which part of chromosome 5 is missing), but its effects are limited in other cytogenetic subtypes of MDS or AML. Therefore, the identification of molecular targets that can enhance or extend the use of LEN in a broader spectrum of patients is desired Applicant explored the possibility of a cooperative effect of LEN and NSC697923 on MDS/AML cells. […] As such, UBE2N is a promising target for extending the use of LEN to other subtypes of MDS/AML.

In series [17] the target is T1, UBE2N. The series is described as follows: UBE2N ubiquitination at Lysine (K)-92.
The subject of series [18] is UBE2N active site mutant. The series is described as follows: Inhibition of NFkB with UBE2N active site mutant. Format: cell-based.
Series [19] has as its system MDS/AML cells. Put plainly: Targeting MDS/AML cells in vivo.
Series [20] deals with primary MDS stem cells. Put plainly: Clonogenic potential of primary MDS stem cells. Format: cell-based.
Series [21] has as its system normal CD34+ cells. The series is described as follows: Function of normal CD34+ cells in the presence of lenalidomide. It is filed as cell-based.
Series [22] has as its system MDS/AML cell lines and patient samples. Put plainly: Combination with lenalidomide on MDS/AML cell lines and patient samples in vitro. Format: cell-based. To be noted: MDS/AML cells.
Source text: as §2

As to `Cc1ccc(S(=O)(=O)c2ccc([N+](=O)[O-])o2)cc1` [NSC697923], the results for the cell cycle arrest entry in series [1] and in series [1] (listed as NSC23) were “induced a G2/M cell cycle arrest” and “induces cell cycle arrest in mitosis”, respectively. Also, the DNA damage entry in [2] is reported as “induces DNA damage”. Besides, the protein ubiquination entry in [3] is recorded as “Differential protein ubiquination”. Further, the proliferation result in series [4] (AML/MDS cells) is “reduces proliferation”. For the same molecule, the “NFkB and interferon signaling” value in [5] (AML/MDS cells, listed as NSC23) is “inhibits NKkB and interferon signaling; also recorded: inhibits NFkB and interferon signaling”. The cell death entry in series [6] is “increased cell death”; in [6] (listed as NSC23), “cell death”. Also, the TRAF6 protein expression entry in [7] is recorded as “dramatic loss of TRAF6 protein expression”. The “effect on normal HSPC (clonogenic capacity)” value in [8] is given as “not significantly affecting normal HSPC”. Besides, the cellular metabolic activity entry in series [9] is listed as “reduced the cellular metabolic activity”. In addition, the “expression of APC/CDC20 substrates (i.e., cyclin B1)” value in series [10] was “increased expression of APC/CDC20 substrates”. For the same molecule, the “gene expression changes by RNA sequencing” value in [10] (MDSL cells) is “expression changes in genes involved in mRNA processing, cell cycle, and glycolysis”. The clonogenic potential result in [11] (AML/MDS cells) was “reduces proliferation and clonogenic potential”. For the same molecule, the clonogenic capacity entry in series [11] (MDSL/AML cell lines and primary cells) is given as “reduced the clonogenic capacity”. Also, the “TLR mediated NFkB activity” value in series [12] is reported as “inhibits TLR mediated NFkB activity”.

For the molecule `Cc1ccc(S(=O)(=O)/C=C/C#N)cc1` [UC64], the “direct binding to UBE2N” value in series [13] is on record as “directly bind UBE2N”. In series [4] (AML cells), the proliferation result is recorded as “reduces their proliferation”. The DNA damage entry in series [14] is reported as “does not cause DNA damage”. The viability entry in series [15] is “reduces their viability”. Further, the NFkB signaling entry in [5] was “inhibits NFkB signaling”. The clonogenic potential entry in [11] (AML cells) is on record as “reduces their clonogenic potential”. Besides, the DDB1 ubiquination result in [16] is given as “differentially ubiquinated”. The “UBE2N ubiquination at Lysine (K)-92” value in series [17] is on record as “reduces UBE2N ubiquination at Lysine (K)-92”. For the same molecule, in series [18], the “sensitivity of UBE2N active site mutant to inhibition of NFkB” value is “less sensitive”. The “TLR mediated NFkB signaling” value in series [12] was “inhibits TLR mediated NFkB signaling”.

As for `Cc1ccc(S(=O)(=O)c2ccc([N+](=O)[O-])o2)cc1` [UC65], the “direct binding to UBE2N” value in series [13] is “directly bind UBE2N”. For the same molecule, the “effectiveness against MDS/AML cells in vivo” value in series [19] is listed as “effective against targeting MDS/AML cells in vivo”. The proliferation result in series [4] (AML cells) was “reduces their proliferation”. Moreover, in series [14], the DNA damage result is given as “does not cause DNA damage”. The viability result in series [15] is recorded as “reduces their viability”. For the same molecule, the NFkB signaling result in series [5] is on record as “inhibits NFkB signaling”. In addition, the clonogenic potential entry in series [20] and in series [11] (AML cells) was “reduces their clonogenic potential” throughout. In addition, the DDB1 ubiquination result in [16] is listed as “differentially ubiquinated”. Besides, the “UBE2N ubiquination at Lysine (K)-92” value in series [17] is recorded as “reduces UBE2N ubiquination at Lysine (K)-92”. In addition, in [18], the “sensitivity of UBE2N active site mutant to inhibition of NFkB” value is recorded as “less sensitive”. Also, the “TLR mediated NFkB signaling” value in series [12] is on record as “inhibits TLR mediated NFkB signaling”.

For the molecule `Nc1cccc2c1CN(C1CCC(=O)NC1=O)C2=O` (stereo not shown) [lenalidomide], the “function of normal CD34+ cells with UBE2N inhibition in the presence of lenalidomide” value in series [21] is reported as “does not affect the function of normal CD34+ cells”. For the same molecule, the “cytotoxic effects of lenalidomide with UBE2N inhibition” value in series [22] is “enhances the cytotoxic effects”.
